Key:
[1] = system: ovaries; settings: bovine insulin; ref Riehle and Brown, 1999; cited from earlier work
[2] = system: Akt; settings: HNMPA-(AM3) 500 μM, ILP3 10 pmol or ILP4 20 pmol, 2 h, immunoblot

Molecule: bovine insulin: bovine insulin
- Ecdysteroid production by ovaries [1]: stimulates ecdysteroid production

Molecule: CC(=O)OCOC(c1ccc2ccccc2c1)P(=O)(OCOC(C)=O)OCOC(C)=O (centres unmarked) [HNMPA-(AM3)]
- Akt phosphorylation in ovaries with ILPs plus HNMPA-(AM3) [2]: no change in phosphorylation

Source: publication PMC2957182 (Molecular and cellular endocrinology, 2010)
